Reference: publication PMC8011784, “Chronic peptide-based GIP receptor inhibition exhibits modest glucose metabolic changes in mice when administered either alone or combined with GLP-1 agonism” (PLoS ONE, 2021)
Starred links: 1 amine or outer side, 2 acyl side, 3 side chain; linkers in the order of their positions; H or OH if unused. Residues, ends and D or L forms follow the SMILES beside them. Groups on a side chain read outwards from the residue. No end group written: not given here. *: point of attachment. γGlu = O=C(O)[C@H](CCC(=O)[*:2])N[*:1]; Palmitoyl = CCCCCCCCCCCCCCCC(=O)*

Experiments:
mouse GIP receptor = target: T1, mouse GIP receptor (Mus musculus, UniProt Q0P543); assay: Antagonist mode cAMP assay: inhibition of mouse GIP-induced cAMP production in CHO-K1 GIPR Gs cells; assay type: cell-based; settings: curve fit value in plot, unit from legend, read-out: IC50 (printed on plot, Fig 1A/1B)
T1 construct: host or cells: CHO-K1 (cAMP Hunter CHO-K1 GIPR Gs cell line)
T1 sequence (Q0P543 19-460): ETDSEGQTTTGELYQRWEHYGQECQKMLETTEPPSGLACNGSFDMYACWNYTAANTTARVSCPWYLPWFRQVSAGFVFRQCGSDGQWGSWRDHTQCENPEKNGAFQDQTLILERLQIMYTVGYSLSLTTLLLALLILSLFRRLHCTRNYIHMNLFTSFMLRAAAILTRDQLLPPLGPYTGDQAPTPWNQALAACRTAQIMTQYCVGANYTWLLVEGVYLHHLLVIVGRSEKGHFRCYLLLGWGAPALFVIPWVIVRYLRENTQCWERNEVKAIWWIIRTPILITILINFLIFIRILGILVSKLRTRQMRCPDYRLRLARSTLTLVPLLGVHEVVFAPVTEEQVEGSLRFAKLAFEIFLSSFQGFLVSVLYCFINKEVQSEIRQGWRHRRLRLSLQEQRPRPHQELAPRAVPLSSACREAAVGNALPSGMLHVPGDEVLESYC
Description: Each peptide was tested for its ability to activate or inhibit the mouse GIP receptor using the cAMP Hunter™ CHO-K1 GIPR Gs cell line, in combination with the Hit Hunter® cAMP XP+ assay for determining cAMP, according to the manufacturer’s instructions (Eurofins DiscoverX Corporation).
Fig 1 Effects of acute GIPR antagonism on glucose homeostasis and insulin secretion. GIPA-1 and GIPA-2 are antagonists of mouse GIPR. […] IC50 values (μM) are indicated on the plots. (C-J) Acute effects of GIPA-1 and GIPA-2 on glucose homeostasis and insulin secretion in lean mice. Oral glucose tolerance tests (C and E), the corresponding areas under the curve (AUC) (D and F) and insulin responses (I) following subcutaneous injections of vehicle, 1,5 and 10 mg/kg GIPA-1 (C and D) or vehicle, 1,5 and 10 mg/kg GIPA-2 (E and F) before an oral glucose administration (1.5 g/kg). […] Statistical analysis was calculated using two-way ANOVA with Tukey’s post-hoc test (C, E, G and J) and one-way ANOVA with Dunnett’s post-hoc test (D, F, H, I). *: p< 0.05, **: p < 0.01, ***: p < 0.001, ****: p<0.0001 compared to vehicle.
We began by characterising the receptor-interaction properties of GIPA-1 and GIPA-2. Their agonist and antagonist potencies were measured via a cAMP production assay in CHO-K1 cells overexpressing the mouse GIPR.

[1] = cited from earlier work
Text: Given the strong in vitro pharmacological data and our interest in other metabolic parameters such as adiposity and insulin se ...

GIPR = settings: cited from earlier work
Text: Further controversy is evident with peptide based GIPR antagonists. […] In contrast, a palmitoyl variant of Pro^3GIP(3–30) ... || The GLP-1-agonist-GIPR-antagonist combination therapy reported in the present study was born from evidence of compromised gut-hormone function in obesity and diabetes as well as their postulated role in driving the beneficial metabolic effects following bariatric surgery. Indeed, GLP-1 secretion is enhanced after bariatric surgery which is thought to be a key component for the resolution of diabetes. In contrast, the controversial role of the GIP signalling pathway in dysmetabolic states has led to the pursuit of both agonist and antagonist approaches. There is a compelling ...

GIP receptor = settings: humans, co-infusion with GIP(3-30)NH2; cited from earlier work
Text: (§1) It has been shown that rat and the human GIP(3-30)NH2 are effective antagonists in vivo [48, 49], so we would expect the mouse GIP(3-30)NH2 to behave in a similar manner. […] In humans GIP-induced insulin secretion was reduced by 82% during co-infusion with GIP(3-30)NH2 [48].

[2] = test system: lean male C57BL/6JRj mice; assay: Acute intraperitoneal glucose tolerance test (IPGTT) with GIPA-2 and mouse GIP in lean mice; assay type: in vivo; settings: n = 8; for plasma insulin: 0.1 mg/kg mouse GIP SC
Description: The effects of GIPA-2 and mouse GIP alone or in combination were studied in 10-week old lean male C57BL/6JRj mice. Animals were fasted 4 hours prior to an intraperitoneal glucose bolus (1.5 g/kg). Sixty minutes prior to glucose load animals received subcutaneous injection of 5mg/kg GIPA-2, while animals receiving mouse GIP (0.1 mg/kg) were dosed subcutaneously 15 minutes prior to glucose load. Blood glucose was measured just before the administration of GIPA-2 and at 0, 15, 30 60, 120, 180 and 240 min. Plasma insulin was measured at 0, 15 and 240 min.
Fig 1 Effects of acute GIPR antagonism on glucose homeostasis and insulin secretion. GIPA-1 and GIPA-2 are antagonists of mouse GIPR. […] IC50 values (μM) are indicated on the plots. (C-J) Acute effects of GIPA-1 and GIPA-2 on glucose homeostasis and insulin secretion in lean mice. Oral glucose tolerance tests (C and E), the corresponding areas under the curve (AUC) (D and F) and insulin responses (I) following subcutaneous injections of vehicle, 1,5 and 10 mg/kg GIPA-1 (C and D) or vehicle, 1,5 and 10 mg/kg GIPA-2 (E and F) before an oral glucose administration (1.5 g/kg). (G, H and J) Acute effect of GIPA-2 alone or in combination with mouse GIP on glucose homeostasis and insulin secretion in lean mice. Intraperitoneal glucose tolerance test cute IPGTT (G), the corresponding AUC (H) and insulin response (J) following subcutaneous injections of vehicle, 0.1 mg/kg mouse GIP, 5mg/kg GIPA-2, and combination of both. Group sizes are n = 8, and data are represented as mean ± SEM. Statistical analysis was calculated using two-way ANOVA with Tukey’s post-hoc test (C, E, G and J) and one-way ANOVA with Dunnett’s post-hoc test (D, F, H, I). *: p< 0.05, **: p < 0.01, ***: p < 0.001, ****: p<0.0001 compared to vehicle.

rats = settings: 25 nmol/kg b.w. for 3 weeks, cited from earlier work
Text: as §1, with “Further controversy is evident with peptide based GIPR antagonists. […] In contrast, a palmitoyl variant of Pro^3GIP(3–30) ... || It” for “It”

Molecule: CC[C@H](C)[C@H](NC(=O)[C@H](CO)NC(=O)[C@H](Cc1ccc(O)cc1)NC(=O)[C@H](CC(=O)O)NC(=O)[C@H](CO)NC(=O)[C@@H](NC(=O)[C@H](Cc1ccccc1)NC(=O)[C@@H](NC(=O)CNC(=O)[C@@H](N)CCC(=O)O)[C@@H](C)O)[C@@H](C)CC)C(=O)N[C@@H](C)C(=O)N[C@@H](CCSC)C(=O)N[C@@H](CC(=O)O)C(=O)N[C@@H](CCCCN)C(=O)N[C@H](C(=O)N[C@@H](CCCNC(=N)N)C(=O)N[C@@H](CCC(N)=O)C(=O)N[C@@H](CCC(N)=O)C(=O)N[C@@H](CC(=O)O)C(=O)N[C@@H](Cc1ccccc1)C(=O)N[C@H](C(=O)N[C@@H](CC(N)=O)C(=O)N[C@@H](Cc1c[nH]c2ccccc12)C(=O)N[C@@H](CC(C)C)C(=O)N[C@@H](CC(C)C)C(=O)N[C@@H](C)C(=O)N[C@@H](CCC(N)=O)C(=O)N[C@@H](CCCNC(=N)N)C(N)=O)C(C)C)[C@@H](C)CC [GIPA-1, mouse GIP(3–30)NH2]
- IC50 (mouse GIP receptor): 483 nM

Molecule: CCCCCCCCCCCCCCCC(=O)N[C@@H](CCC(=O)N[C@@H](CCC(=O)NCCCC[C@H](NC(=O)[C@H](CC(=O)O)NC(=O)[C@H](CO)NC(=O)[C@@H](NC(=O)[C@H](Cc1ccccc1)NC(=O)[C@@H](NC(C)=O)[C@@H](C)O)[C@@H](C)CC)C(=O)N[C@@H](CO)C(=O)N[C@H](C(=O)N[C@@H](C)C(=O)N[C@@H](CCSC)C(=O)N[C@@H](CC(=O)O)C(=O)N[C@@H](CCCCN)C(=O)N[C@H](C(=O)N[C@@H](CCCNC(=N)N)C(=O)N[C@@H](CCC(N)=O)C(=O)N[C@@H](CCC(N)=O)C(=O)N[C@@H](CC(=O)O)C(=O)N[C@@H](Cc1ccccc1)C(=O)N[C@H](C(=O)N[C@@H](CC(N)=O)C(=O)N[C@@H](Cc1c[nH]c2ccccc12)C(=O)N[C@@H](CC(C)C)C(=O)N[C@@H](CC(C)C)C(=O)N[C@@H](C)C(=O)N[C@@H](CCC(N)=O)C(=O)N[C@@H](CCCCN)C(=O)NCC(=O)N[C@@H](CCCCN)C(=O)N[C@@H](CCCCN)C(=O)N[C@@H](CC(N)=O)C(=O)N[C@@H](CC(=O)O)C(=O)N[C@@H](Cc1c[nH]c2ccccc12)C(=O)N[C@@H](CCCCN)C(=O)N[C@@H](Cc1c[nH]cn1)C(=O)N[C@@H](CC(N)=O)C(=O)N[C@H](C(=O)N[C@H](C(=O)N[C@@H](CCC(N)=O)C(=O)O)[C@@H](C)O)[C@@H](C)CC)C(C)C)[C@@H](C)CC)[C@@H](C)CC)C(=O)O)C(=O)O [GIPA-2, N^αAc-K10[γEγE-C16]-Arg18-hGIP(5–42)] (Ac-TFISDK([γGlu-γGlu-Palmitoyl])SIAMDKIRQQDFVNWLLAQKGKKNDWKHNITQ-OH)
- IC50 (mouse GIP receptor): 2.97 nM
- plasma half-life and in vivo duration of action [1]: extended plasma half-life

Molecule: (Pro3)-GIP: GIPR antagonist subsequently found to also possess partial agonist properties (YAPGTFISDYSIAMDKIHQQDFVNWLLAQKGKKNDWKHNITQ; Gastric inhibitory polypeptide; UniProt P09681 52-93, looked up, variant E3P)
- GIPR agonist/antagonist character (GIPR): originally characterized as an antagonist but was subsequently found to also possess partial agonist properties

Molecule: GIP(3–30)NH2: N-terminally truncated form of GIP, potent peptide-based antagonist; species not stated (EGTFISDYSIAMDKIHQQDFVNWLLAQK-NH2; UniProt P09681 54-81, looked up, fragment)
- GIPR antagonist potency (GIPR): potent peptide-based antagonist

Molecule: human GIP(3-30)NH2: the human peptide sequence of GIP(3-30)NH2 (EGTFISDYSIAMDKIHQQDFVNWLLAQK-NH2; UniProt P09681 54-81, looked up, fragment)
- reduction of GIP-induced insulin secretion (GIP receptor): 82%
- plasma elimination half-life ([1]; human peptide sequence, in humans): 7.7 ± 1.4 min

Molecule: mouse GIP: Mouse GIP was sourced from Phoenix Pharmaceuticals (YAEGTFISDYSIAMDKIRQQDFVNWLLAQRGKKSDWKHNITQ; Gastric inhibitory polypeptide; UniProt P48756 44-85, looked up)
- glucose tolerance (IPGTT) ([2]; 5 mg/kg GIPA-2 SC 60 min and/or 0.1 mg/kg mouse GIP SC 15 min before ip glucose 1.5 g/kg): significantly improved glucose tolerance
- plasma insulin ([2]; 15 and 240 min timepoints): This effect was not observed
- plasma insulin ([2]; 15 minutes after mouse GIP, just prior to glucose bolus (0 min), 5 mg/kg GIPA-2 SC): robust increase in plasma insulin

Molecule: rat GIP(3–30)NH2: GIPR antagonist, rat GIP(3–30)NH2
- body weight, fat mass, triglycerides, LPL, leptin (rats; sub-chronic dosing, rats fed normal chow): significantly increased body weight, body fat mass, triglycerides, LPL, and leptin levels
- food intake or bone resorption (rats; subchronic treatment): did not modify food intake or bone resorption
